32 compounds from patent US20240376090A1, “ISOXAZOLE DERIVATIVES AS MODULATORS OF THE 5-HT2A SEROTONIN RECEPTOR USEFUL FOR THE TREATMENT OF DISORDERED RELATED THERETO” (Arena Pharmaceuticals, Inc., priority 2020, published 2024) can be followed below.

SMILES strings stand for the structures.

In the assay the target is 5-HT2A receptor (Homo sapiens (Human), UniProt P28223). Nature of the assay: Radioligand binding assay ([3H]5-HT competition), 5-HT2A. The conditions noted are these: [3H]5-HT radioligand, membranes of HEK293 cells expressing recombinant 5-HT2A; Ki from IC50 by Cheng-Prusoff; read-out: 5-HT2A serotonin binding Ki value. How it is done: Competition binding experiments consisted of addition of 5 μL of serially diluted test compound, 50 μL of radioligand stock diluted in Assay Buffer (20 mM HEPES, pH 7.4, 10 mM MgCl2), and 145 μL of diluted membrane expressing the receptor of interest to 96-well microtiter plates, which were then incubated for one hour at room temperature. Assay incubations were terminated by rapid filtration through Perkin Elmer GF/C filtration plates under vacuum pressure using a 96-well Packard filtration apparatus, followed by washing the filter plates several times with ice cold Assay Buffer. Plates were then dried at 45° C. for a minimum of four hours. Finally, 25 μL of BetaScint scintillation cocktail was added to each well and the plates were counted in a Packard TopCount scintillation counter. In each competition study, test compounds were assayed at 10 concentrations with three replicates at each test concentration. Dose-response curves were constructed to determine IC50 values and these were converted to corresponding Ki values using the Cheng-Prusoff equation.
Sequence of 5-HT2A receptor (P28223 whole entry): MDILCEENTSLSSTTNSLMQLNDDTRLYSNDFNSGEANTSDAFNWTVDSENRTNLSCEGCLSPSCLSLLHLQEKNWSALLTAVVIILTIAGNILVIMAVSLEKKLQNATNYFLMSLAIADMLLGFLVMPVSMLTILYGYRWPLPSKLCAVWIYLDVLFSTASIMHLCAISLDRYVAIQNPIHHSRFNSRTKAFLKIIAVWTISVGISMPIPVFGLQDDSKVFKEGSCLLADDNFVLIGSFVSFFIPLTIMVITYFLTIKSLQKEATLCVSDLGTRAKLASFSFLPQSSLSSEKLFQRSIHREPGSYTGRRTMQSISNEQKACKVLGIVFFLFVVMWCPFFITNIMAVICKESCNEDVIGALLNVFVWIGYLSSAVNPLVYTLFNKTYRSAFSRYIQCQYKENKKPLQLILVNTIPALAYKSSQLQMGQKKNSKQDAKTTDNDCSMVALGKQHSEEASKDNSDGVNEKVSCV
On to `Cc1noc(C)c1-c1cc(NC(=O)c2c(F)cnn2C)ccc1OCCN1CCOCC1` [Compound 134, N-[3-(3,5-dimethylisoxazol-4-yl)-4-(2-morpholinoethoxy)phenyl]-4-fluoro-2-methyl-pyrazole-3-carboxamide], for which the Ki stood at 5.86 nM.

For `CCOC1CC1C(=O)Nc1ccc(OCCN2CCOCC2)c(-c2c(C)noc2C)c1` (centres unmarked) [Compound 135, N-[3-(3,5-dimethylisoxazol-4-yl)-4-(2-morpholinoethoxy)phenyl]-2-ethoxy-cyclopropanecarboxamide], the Ki was 20.1 nM.

As to `Cc1noc(C)c1-c1cc(NC(=O)C2CC2)ccc1OCCN1CCOC(=O)CC1` [Compound 137, N-[3-(3,5-dimethylisoxazol-4-yl)-4-[2-(7-oxo-1,4-oxazepan-4-yl)ethoxy]phenyl]cyclopropanecarboxamide], the Ki stood at 551 nM.

Regarding `Cc1noc(C)c1-c1cc(NC(=O)C2CC2)ccc1OCCN1CCN2C(=O)CCC2C1` (centres unmarked) [Compound 138, N-(3-(3,5-dimethylisoxazol-4-yl)-4-(2-(6-oxohexahydropyrrolo[1,2-a]pyrazin-2(1H)-yl)ethoxy)phenyl)cyclopropanecarboxamide], the Ki came out at 24.6 nM.

Regarding `Cc1noc(C)c1-c1cc(NC(=O)C2CC2)ccc1OCCN1CCC2(CC1)CNC2=O` [Compound 139, N-(3-(3,5-dimethylisoxazol-4-yl)-4-(2-(1-oxo-2,7-diazaspiro[3.5]nonan-7-yl)ethoxy)phenyl)cyclopropanecarboxamide], the Ki is 124 nM.

Take `Cc1noc(C)c1-c1cc(NC(=O)C2CC2)ccc1OCCN1CCC2(CC1)CC(=O)N2` [Compound 140, N-(3-(3,5-dimethylisoxazol-4-yl)-4-(2-(2-oxo-1,7-diazaspiro[3.5]nonan-7-yl)ethoxy)phenyl)cyclopropanecarboxamide]: the Ki was 228 nM.

Turning to `Cc1noc(C)c1-c1cc(NC(=O)C2CC2)ccc1OCCN1CCC2(CCOC2=O)CC1` [Compound 142, N-(3-(3,5-dimethylisoxazol-4-yl)-4-(2-(1-oxo-2-oxa-8-azaspiro[4.5]decan-8-yl)ethoxy)phenyl)cyclopropanecarboxamide], the Ki stood at 67.4 nM.

Turning to `COC1CCN(CCOc2ccc(NC(=O)C3CC3)cc2-c2c(C)noc2C)CC1` [Compound 143, N-(3-(3,5-dimethylisoxazol-4-yl)-4-(2-(4-methoxypiperidin-1-yl)ethoxy)phenyl)cyclopropanecarboxamide], the Ki is 84 nM.

For the compound `CO[C@@H]1CCN(CCOc2ccc(NC(=O)C3CC3)cc2-c2c(C)noc2C)C1` [Compound 145, (R)—N-(3-(3,5-dimethylisoxazol-4-yl)-4-(2-(3-methoxypyrrolidin-1-yl)ethoxy)phenyl)cyclopropanecarboxamide], the inhibition constant Ki came to 5.51 nM.

In the case of `Cc1noc(C)c1-c1cc(NC(=O)C2CC2)ccc1OCCN1CC[C@H](O)C1` [Compound 147, (S)—N-(3-(3,5-dimethylisoxazol-4-yl)-4-(2-(3-hydroxypyrrolidin-1-yl)ethoxy)phenyl)cyclopropanecarboxamide], the Ki came out at 25.2 nM.

As to `Cc1noc(C)c1-c1cc(NC(=O)C2CC2)ccc1OCCN1CC[C@@H](O)C1` [Compound 148, (R)—N-(3-(3,5-dimethylisoxazol-4-yl)-4-(2-(3-hydroxypyrrolidin-1-yl)ethoxy)phenyl)cyclopropanecarboxamide], the Ki worked out at 71.6 nM.

Turning to `CCN(C)CCOc1ccc(NC(=O)C2CC2)cc1-c1c(C)noc1C` [Compound 149, N-(3-(3,5-dimethylisoxazol-4-yl)-4-(2-(ethyl(methyl)amino)ethoxy)phenyl)cyclopropanecarboxamide], the Ki was determined as 13.9 nM.

Turning to `CCCN(C)CCOc1ccc(NC(=O)C2CC2)cc1-c1c(C)noc1C` [Compound 150, N-(3-(3,5-dimethylisoxazol-4-yl)-4-(2-(methyl(propyl)amino)ethoxy)phenyl)cyclopropanecarboxamide], the inhibitory constant (Ki) is 13.5 nM.

Regarding `Cc1noc(C)c1-c1cc(NC(=O)C2CC2)ccc1OCCN(C)CC1CC1` [Compound 151, N-(4-(2-((cyclopropylmethyl)(methyl)amino)ethoxy)-3-(3,5-dimethylisoxazol-4-yl)phenyl)cyclopropanecarboxamide], the Ki is 47.1 nM.

Consider `Cc1noc(C)c1-c1cc(NC(=O)C2CC2)ccc1OCCN(C)C1CCC1` [Compound 152, N-(4-(2-(cyclobutyl(methyl)amino)ethoxy)-3-(3,5-dimethylisoxazol-4-yl)phenyl)cyclopropanecarboxamide], for which the Ki was found to be 41.7 nM.

In the case of `CCN(CC)CCOc1ccc(NC(=O)C2CC2)cc1-c1c(C)noc1C` [Compound 153, N-(4-(2-(diethylamino)ethoxy)-3-(3,5-dimethylisoxazol-4-yl)phenyl)cyclopropanecarboxamide], the Ki stood at 109 nM.

For `Cc1noc(C)c1-c1cc(NC(=O)C2CC2)ccc1OCCN1CC2(COC2)C1` [Compound 155, N-[3-(3,5-dimethylisoxazol-4-yl)-4-[2-(2-oxa-6-azaspiro[3.3]heptan-6-yl)ethoxy]phenyl]cyclopropanecarboxamide], the inhibitory constant (Ki) was 22 nM.

Take `Cc1noc(C)c1-c1cc(NC(=O)C2CC2)ccc1OCCN1CCN(C)C(=O)C1` [Compound 156, N-[3-(3,5-dimethylisoxazol-4-yl)-4-[2-(4-methyl-3-oxo-piperazin-1-yl)ethoxy]phenyl]cyclopropanecarboxamide]: the inhibition constant (Ki) stood at 145 nM.

Consider `Cc1noc(C)c1-c1cc(NC(=O)C2CC2)ccc1OCCN1CCC12COC2` [Compound 157, N-[3-(3,5-dimethylisoxazol-4-yl)-4-[2-(6-oxa-1-azaspiro[3.3]heptan-1-yl)ethoxy]phenyl]cyclopropanecarboxamide], for which the inhibition constant (Ki) worked out at 2070 nM.

In the case of `Cc1noc(C)c1-c1cc(NC(=O)C2CC2)ccc1OCCN1CCC(CC(=O)O)CC1` [Compound 158, 2-[1-[2-[4-(cyclopropanecarbonylamino)-2-(3,5-dimethylisoxazol-4-yl)phenoxy]ethyl]-4-piperidyl]acetic acid], the Ki worked out at 233 nM.

In the case of `Cc1noc(C)c1-c1cc(NC(=O)C2CC2)ccc1OCCN1[C@@H]2COC[C@H]1C2` [Compound 159, N-[3-(3,5-dimethylisoxazol-4-yl)-4-[2-[(1R,5S)-3-oxa-6-azabicyclo[3.1.1]heptan-6-yl]ethoxy]phenyl]cyclopropanecarboxamide], the Ki is 1.61 nM.

With `Cc1noc(C)c1-c1cc(NC(=O)C2CC2)ccc1OCCN1C[C@@H]2C[C@H]1CO2` [Compound 160, N-(4-(2-((1S,4S)-2-oxa-5-azabicyclo[2.2.1]heptan-5-yl)ethoxy)-3-(3,5-dimethylisoxazol-4-yl)phenyl)cyclopropanecarboxamide], the Ki is 4.07 nM.

`Cc1noc(C)c1-c1cc(NC(=O)c2ccccc2)ccc1OCCN1C[C@@H]2C[C@H]1CO2` [Compound 161, N-[3-(3,5-dimethylisoxazol-4-yl)-4-[2-[(1S,4S)-2-oxa-5-azabicyclo[2.2.1]heptan-5-yl]ethoxy]phenyl]benzamide]: the Ki came to 6.4 nM.

As to `Cc1noc(C)c1-c1cc(NC(=O)C2(F)CC2)ccc1OCCN1C[C@@H]2C[C@H]1CO2` [Compound 162, N-[3-(3,5-dimethylisoxazol-4-yl)-4-[2-[(1S,4S)-2-oxa-5-azabicyclo[2.2.1]heptan-5-yl]ethoxy]phenyl]-1-fluoro-cyclopropanecarboxamide], the Ki stood at 4.7 nM.

As to `Cc1noc(C)c1-c1cc(NC(=O)c2ccnn2C)ccc1OCCN1C[C@@H]2C[C@H]1CO2` [Compound 163, N-[3-(3,5-dimethylisoxazol-4-yl)-4-[2-[(1S,4S)-2-oxa-5-azabicyclo[2.2.1]heptan-5-yl]ethoxy]phenyl]-2-methyl-pyrazole-3-carboxamide], the Ki is 6.73 nM.

With `Cc1noc(C)c1-c1cc(NC(=O)C2CC2)ccc1OCCN1C[C@H]2C[C@H]2C1` [Compound 164, N-[4-[2-[(1R,5S)-3-azabicyclo[3.1.0]hexan-3-yl]ethoxy]-3-(3,5-dimethylisoxazol-4-yl)phenyl]cyclopropanecarboxamide], the inhibition constant (Ki) was 13.8 nM.

Take `Cc1noc(C)c1-c1cc(NC(=O)c2cccc(C(F)(F)F)c2)ccc1OCCN1CCOCC1` [Compound 165, N-[3-(3,5-dimethylisoxazol-4-yl)-4-(2-morpholinoethoxy)phenyl]-3-(trifluoromethyl)benzamide]: the inhibitory constant (Ki) came to 1.08 nM.

Consider `Cc1noc(C)c1-c1cc(NC(=O)C2CC2)ccc1OCCN1CCOCC1` [Compound 166, N-[3-(3,5-dimethylisoxazol-4-yl)-4-(2-morpholinoethoxy)phenyl]cyclopropanecarboxamide], for which the Ki came out at 6.54 nM.

`Cc1noc(C)c1-c1cc(NC(=O)C2CC2)ccc1OCCN1CCCC1` [Compound 167, N-[3-(3,5-dimethylisoxazol-4-yl)-4-(2-pyrrolidin-1-ylethoxy)phenyl]cyclopropanecarboxamide]: the Ki is 7.71 nM.

As to `CC(=O)N1CCN(CCOc2ccc(NC(=O)C3CC3)cc2-c2c(C)noc2C)CC1` [Compound 168, N-[4-[2-(4-acetylpiperazin-1-yl)ethoxy]-3-(3,5-dimethylisoxazol-4-yl)phenyl]cyclopropanecarboxamide], the Ki was found to be 12.2 nM.

For the compound `Cc1noc(C)c1-c1cc(NC(=O)C2CC2)ccc1OC[C@@H]1CCCCN1` [Compound 170, (S)—N-(3-(3,5-dimethylisoxazol-4-yl)-4-(piperidin-2-ylmethoxy)phenyl)cyclopropanecarboxamide], the Ki is 49.6 nM.

Consider `Cc1noc(C)c1-c1cc(NC(=O)C2CC2)ccc1OC[C@@H]1COCCN1` [Compound 171, (S)—N-(3-(3,5-dimethylisoxazol-4-yl)-4-(morpholin-3-ylmethoxy)phenyl)cyclopropanecarboxamide], for which the Ki came to 184 nM.

Broadly, the Ki is a dissociation constant, usually derived from enzyme kinetics or from competition with a known ligand.
